The values below come from paper PMC13516207 (Pharmaceuticals, 2026).

The target of this test is human CXCR4 (Homo sapiens, UniProt P61073). In words: CXCL12-AF647 competition binding on Jurkat cells, flow cytometry. The settings on record: competition with CXCL12-AF647, mean ± SD. Background: A flow cytometer gives signals particle by particle.

Bridge positions count the residues as written; N and C are the ends. Square brackets hold non-standard residues; d marks the D form. Side chains are listed from the residue outwards. Peptide text beside a SMILES is read from it. * marks the point of attachment. NOTA = O=C(O)CN1CCN(CC(=O)O)CCN(CC(=O)*)CC1; 2Nal = N[C@@H](Cc1ccc2ccccc2c1)C(=O)O; Lys(iPr) = CC(C)NCCCC[C@H](N)C(=O)O

Sequence of human CXCR4 (P61073 whole entry): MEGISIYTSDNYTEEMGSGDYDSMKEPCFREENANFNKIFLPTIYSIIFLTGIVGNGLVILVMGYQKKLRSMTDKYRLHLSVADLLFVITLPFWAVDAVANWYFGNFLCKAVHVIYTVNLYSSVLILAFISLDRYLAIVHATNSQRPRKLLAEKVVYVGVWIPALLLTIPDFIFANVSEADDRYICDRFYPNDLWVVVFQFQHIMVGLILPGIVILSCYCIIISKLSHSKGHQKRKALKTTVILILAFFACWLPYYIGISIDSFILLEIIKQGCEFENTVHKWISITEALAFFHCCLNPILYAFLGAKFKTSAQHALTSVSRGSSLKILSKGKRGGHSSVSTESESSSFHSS
Method: Subsequently, 50 µL containing 0.25 × 10^6 Jurkat cells was added to each well, followed by 50 µL human CXCL12-AF647 (100 ng/mL; Almac, Craigavon, UK). Plates were incubated for 30 min at room temperature in the dark. After incubation, the cells were washed twice by centrifugation (400× g, 5 min) to replace the supernatant and subsequently fixed with 1% paraformaldehyde (Merck, Darmstadt, Germany). Fluorescence intensity was quantified by flow cytometry, and IC50 values were obtained by nonlinear regression analysis. All measurements were performed with at least four technical replicates.

As to `CC(C)NCCCC[C@@H]1NC(=O)[C@H](Cc2ccc(O)cc2)NC(=O)[C@H](Cc2ccccc2)NC(=O)CC[C@H](C(=O)N[C@@H](CCCCNC(C)C)C(=O)N[C@@H](CCCCNC(=O)[C@H](CCC(=O)O)NC(=O)[C@H](CCC(=O)O)NC(=O)[C@H](CCC(=O)O)NC(=O)CN2CCN(CC(=O)O)CCN(CC(=O)O)CC2)C(N)=O)NC(=O)CNC(=O)[C@H](Cc2ccc3ccccc3c2)NC(=O)[C@@H](CCCNC(=N)N)NC1=O` [[^natF]AlF-NOTA-SC] (FY[Lys(iPr)][dR][2Nal]G[dE][Lys(iPr)]K([Glu-Glu-Glu-NOTA])-NH2; lactam N-7), the 50% inhibitory concentration (IC50) (usually the point on the concentration scale where inhibition reaches its midpoint) came out at 14.4 ± 2.65 nM.
`CC(C)NCCCC[C@H](NC(=O)[C@H]1CCC(=O)N[C@@H](Cc2ccccc2)C(=O)N[C@@H](Cc2ccc(O)cc2)C(=O)N[C@@H](CCCCNC(C)C)C(=O)N[C@H](CCCNC(=N)N)C(=O)N[C@@H](Cc2ccc3ccccc3c2)C(=O)NCC(=O)N1)C(N)=O` [LY2510924, cyclo[Phe-Tyr-Lys(iPr)-D-Arg-2-Nal-Gly-D-Glu]-Lys(iPr)-NH2] (FY[Lys(iPr)][dR][2Nal]G[dE][Lys(iPr)]-NH2; lactam N-7): the 50% inhibitory concentration (IC50) was 0.36 ± 0.07 nM. This IC50 is about 40-fold lower than that of the compound before.
